These results are taken from publication PMC10135059, “Kaurane-Type Diterpenoids as Potential Inhibitors of Dihydrofolate Reductase-Thymidylate Synthase in New World Leishmania Species” (Antibiotics, 2023).

Assay [1] has as its target L. chagasi PTR1 and DHFR-TS. Also noted: method as in PMID 31409157. The settings on record: L. chagasi PTR1 vs DHFR-TS; cited from earlier work.
Assay [2] has as its target T1, L. major dihydrofolate reductase (LmDHFR), recombinant LmDHFR-TS (Leishmania major, UniProt P07382).
T1 construct: made in house
As to the kind of experiment: LmDHFR-TS enzyme inhibition assay (spectrophotometric, standard DHFR conditions). The class given is biochemical. The method, then: Then, using the Cheng–Prusoff equation and assuming reversible competitive inhibition and a 1:1 stoichiometry, the apparent inhibitory constant (Ki^app) was calculated for the selected kauranes using the IC50 results, as shown in Table 1.
Purification and kinetic characterization of the recombinant LmDHFR-TS protein was performed according to the previously reported procedures. The in vitro evaluation of selected diterpenoids (i.e., 4, 135, 301, 302, 301a, and 302a) for inhibitory activity against LmDHFR-TS was conducted using a spectrophotometric assay under standard DHFR conditions. The assay consisted of LmDHFR (2.7 nM), bovine serum albumin (BSA, 1 mg/mL), N-[tris(hydroxymethyl)-methyl]-2-aminoethanesulfonic acid (TES) buffer (100 mM, pH 7.0, […] β-mercaptoethanol, 2 mM ethylenediaminetetraacetic acid (EDTA)), and nicotinamide adenine dinucleotide phosphate (NADPH, 100 μM) with varying concentrations of the test compounds (0.1–128 μM). The reaction was initiated by adding the substrate (7,8-dihydrofolate (H2F), 20 μM) and was monitored for 360 s at 340 nm (i.e., oxidation of NADPH to NADP+) to determine the initial reaction rate (Vo) through linear regression analysis of the resulting absorbance profile. […] The Ki^app values were finally calculated using the Cheng–Prusoff equation for competitive inhibition with a 1:1 stoichiometry and reversible inhibitor-binding reactions: Ki^app = IC50/(1 + [S]/Km), where [S] is the substrate (H2F) concentration and Km is the Michaelis constant.

Assay [3] addresses T1, L. major dihydrofolate reductase (LmDHFR), recombinant LmDHFR-TS. The assay is described as above. The class given is biochemical. Particulars: cutoff pIC50 value of the L. major machine learning model.
Assay [4] relates to Leishmania major PTR1 (LmPTR1). Also on record: method as in PMID 34063939. Particulars: previous study; cited from earlier work.
The mark [5] stands for this setting: IC50, LmDHFR 2.7 nM, NADPH 100 μM, H2F 20 μM, test compounds 0.1–128 μM, triplicate.

Where only a bound is given, the exact number is not on record here.

T1 sequence (P07382 whole entry): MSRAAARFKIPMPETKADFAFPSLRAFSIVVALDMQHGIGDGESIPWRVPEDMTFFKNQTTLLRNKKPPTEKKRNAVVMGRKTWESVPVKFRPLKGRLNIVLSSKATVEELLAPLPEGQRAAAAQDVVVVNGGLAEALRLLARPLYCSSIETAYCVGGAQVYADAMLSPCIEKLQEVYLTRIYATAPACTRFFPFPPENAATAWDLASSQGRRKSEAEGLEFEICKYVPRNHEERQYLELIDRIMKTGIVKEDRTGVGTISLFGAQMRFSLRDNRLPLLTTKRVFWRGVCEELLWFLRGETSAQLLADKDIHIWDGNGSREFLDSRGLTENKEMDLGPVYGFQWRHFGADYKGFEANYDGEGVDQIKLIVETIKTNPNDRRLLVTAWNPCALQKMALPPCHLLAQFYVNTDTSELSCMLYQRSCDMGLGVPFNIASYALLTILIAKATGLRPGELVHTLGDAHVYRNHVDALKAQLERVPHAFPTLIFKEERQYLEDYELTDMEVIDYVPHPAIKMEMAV

As for `Nc1nc(N)c(Cc2ccccc2)c(CC2CCCCC2)n1` [2,4-diamine, 5-benzyl-6-(cyclohexylmethyl) pyrimidine-2,4-diamine], the “Ki^Lc^PTR1/Ki^Lc^DHFR-TS ratio” value in assay [1] is given as 0.68.
For orientation: Ki means the dissociation constant of the complex between target and ligand, obtained from inhibition or displacement. As usually defined, the IC50 is the concentration that inhibits the measured activity by half. For `CC1(C)OCC2(CC34CCC5C(C)(C)C(=O)CCC5(C)C3CCC2C4)O1` (stereo not drawn) [structure 4, 16ß,17-Isopropylidenedioxy-ent-kauran-3-one], in assay [2], the Ki was determined as 0.81 µM. Further, the IC50 in assay [2] (setting [5]) came to 7.6 µM.
In the same order, the values of `C=C1CC23CCC4C(C)(C(=O)OC5C=C(C)C(O)CC5C(C)C)CCCC4(C)C2CCC1C3` (stereo not drawn) [structure 135, 2β-hydroxy-menth-6-en-5β-yl ent-kaurenoate] are 1.2 µM and 11.2 µM.
Turning to `C=C1CC23CCC4C(C)(C(=O)O)C(OC(=O)C=Cc5ccccc5)CCC4(C)C2(O)CCC1C3` (stereo not drawn) [structure 301, 3α-cinnamoyloxy-9β-hydroxy-ent-kaur-16-en-19-oic Acid], the Ki in assay [2] is 0.94 µM. Further, the concentration for half-maximal inhibition (IC50) is 8.8 µM in assay [2] (setting [5]) and less than 10 µM in assay [2] (pIC50, pIC50 = −log IC50). For the same molecule, in assay [3], the “classification against DHFR-TS” value is on record as “active”. Further, in assay [4], the “classification against PTR1” value was “inactive”.
As to `C=C1CC23CCC4C(C)(C(=O)O)C(OC(=O)C=Cc5ccc(O)cc5)CCC4(C)C2(O)CCC1C3` (stereo not drawn) [structure 301a, 3α-p-coumaroyloxy-9β-hydroxy-ent-kaur-16-en-19-oic acid], the inhibition constant Ki in assay [2] came to 0.85 µM. Besides, the half-maximal inhibitory concentration (IC50) is 7.9 µM in assay [2] (setting [5]) and less than 10 µM in assay [2] (pIC50, pIC50 = −log IC50). In assay [2] (effect of p-hydroxyl group, 301a vs 301, 302a vs 302), the “reduction of Ki^app compared to kauranes 301 and 302” value is on record as 10%. The “classification against PTR1” value in assay [4] was “inactive”.
With `C=C1CC23CCC4C(C)(CCC(OC(=O)C=Cc5ccccc5)C4(C)C(=O)O)C2CCC1C3` (stereo not drawn) [structure 302, 3α-cinnamoyloxy-ent-kaur-16-en-19-oic acid], the inhibition constant (Ki) in assay [2] is 0.68 µM. The half-inhibitory concentration (IC50) in assay [2] (setting [5]) is 6.3 µM; in assay [2] (pIC50, pIC50 = −log IC50), less than 10 µM. For the same molecule, the “half-maximal inhibitory concentrations (IC50) against PTR1” value in assay [4] was “less than 10 µg/mL”.
